# Data as given in paper PMC6053448, “Small molecule activator of Nm23/NDPK as an inhibitor of metastasis” (Scientific Reports, 2018).
# Assays:
# [1] = molecular target: T1, recombinant human Nm23-H1 (NDPK-A) (Homo sapiens, UniProt P15531); assay: NDPK assay, double reciprocal plot; assay type: biochemical; details: 5 µM ATP, without NMac1
# T1 construct: gene NME1; pET-3c, E. coli BL21(DE3), no tag mentioned; ATP-sepharose purification
# [2] = molecular target: T1, recombinant human Nm23-H1 (NDPK-A); assay: NDPK assay, activation; assay type: biochemical; details: number only in supplement
# T1 sequence (P15531 whole entry): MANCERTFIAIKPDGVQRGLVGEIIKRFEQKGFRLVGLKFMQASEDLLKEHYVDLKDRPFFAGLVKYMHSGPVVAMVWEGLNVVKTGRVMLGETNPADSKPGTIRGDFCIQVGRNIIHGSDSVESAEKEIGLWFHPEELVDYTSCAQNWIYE
Compound,Km [1],% activation [2]
O=c1ccn([C@@H]2O[C@H](COP(=O)(O)OP(=O)(O)O)[C@@H](O)[C@H]2O)c(=O)[nH]1 [UDP],NMac1 decreased the Km value of Nm23-H1 for substrate UDP without affecting Vmax,–
"COc1ccc(/C=C/[C@H]2CCC=C[C@@H]2c2ccc(OC)c(OC)c2)cc1OC [NMac3, 3S-(3,4-dimethoxyphenyl)-4R-[(E)-3,4-dimethoxystyryl]cyclohex-1-ene]",–,The chirality of the molecule did not affect the activation of Nm23-H1
